SMILES strings stand for the structures. Where a name gives a salt, the structure may show the parent alone.

For data set [1], the system named is men with docetaxel-refractory castration-resistant prostate cancer. In words: CS-202 Cohort B: AT-101 added to docetaxel/prednisone in docetaxel-refractory CRPC. Here is the method: An open-label non-randomized Phase I-II clinical trial (labeled CS-202) is being carried out on patients with histologically confirmed metastatic prostate cancer. Briefly, patients are divided in into two cohorts: Cohort A-Patients with rising PSA level on hormonal therapy, i.e., hormone-refractory patients, and Cohort B-Patients with PSA or disease progression on docetaxel (taxotere), i.e., docetaxel-refractory patients. All patients were treated with 40-60 mg (−)-gossypol acetic acid co-crystal 40-60 mg BID days 1-3, every 21 days, 75 mg/m2 docetaxel q 21 days and prednisone, daily per label.
Treatment regimen in this study is: oral AT-101 40 mg BID×3 days q 3 weeks, IV taxotere 75 mg/m^2 q 3 weeks, and oral prednisone 5 mg BID daily.
A clinical study of docetaxel and prednisone in combination with AT-101 using a pulse administration schedule in men with docetaxel-refractory castration-resistant prostate cancer (CRPC) is ongoing (see Example 4, cohort B patients). A strict definition of docetaxel refractoriness which requires that the patient have progression as measured by PSA levels, RECIST, or bone scan while receiving docetaxel (D) and prednisone (P) is being used in the study. RECIST criteria are widely-used and well known in the art. The intervention is to continue docetaxel and prednisone treatment and to add AT-101.

In data set [2] the test system is patients with advanced cancer. Kind of data set: Pulsatile dose administration of AT-101 b.i.d. times 3 days every other week, clinical efficacy and case summaries. It counts as in vivo, human. An excerpt: Following pulsatile dose administration of (−)-gossypol to patients with advanced cancer, clinical efficacy (e.g., patients having stable disease for 60 days or more) was monitored. […] The case summaries are as follows:
Patient 1 is a person diagnosed with non-small cell lung cancer (NSCLC) by bronchial biopsy in March 2005. The patient initially received the Carboplatin/paclitaxel with radiation therapy as adjuvant therapy from April to May 2005. Disease progression was diagnosed in September 2005 and treatment with erlotinib was begun in October 2005. The patient had progressive disease in January 2006. The patient started on treatment with AT-101 40 mg b.i.d. times 3 days every other week in March 2006. When the patient started on treatment with AT-101 they had extensive lymph node disease that remained stable on study drug for approximately 939 days (2.6 years). The patient's baseline signs and symptoms included: anemia, fatigue and productive cough. Their medical history includes: history of smoking, COPD, BPH, hypercholesterolemia, hypophosphatemia, RT induced esophagitis.
Patient 2 is a person diagnosed with a neuroendocrine carcinoma by a CT guided biopsy of an abdominal mass in May 2002. The patient was initially treated with interferon alpha from September 2002 to March 2003 but the disease progressed. Subsequently, the patient was treated with an investigational VEGFR2 targeted agent, SUO11248, from August 2003 to March 2004 until progression. The patient next received interferon plus capecitabine from August 2004 to June 2005 until disease progression in July 2005. Next, the patient was treated with […] doxirubicin from July 2005 to January 2006 until disease progression in February 2006. They started on the AT-101 treatment in February 2006 and received AT-101 30 mg b.i.d. times 3 days every other week. At the start of therapy, disease was present in the liver, abdomen, and pelvis and notable for numerous mesenteric masses. These remained stable on study for 18 cycles (534 days). The patient came off study due to increased weight loss and the investigator decision to send the patient for surgery for tumor debulking. The patient's baseline signs and symptoms included tumor pain, fatigue and weight loss. The patient's medical history included: GERD, HTN, congenital pulmonary cysts, anemia, and diarrhea.

Data set [3] has as its system patients with metastatic prostate cancer, hormone-refractory. Kind of data set: CS-202 Phase I-II, Cohort A (hormone-refractory patients): PSA and tumor response. As to conditions: with docetaxel and prednisone. The data set is classed as in vivo, human. From the text: See N. Engl. J. Med. 351:1502-1512 (2004) for further details of TAX 327 clinical study.
(“D”=docetaxel; “P”=prednisone).

The test system of data set [4] is men with treatment naïve CRPC. In words: Single agent AT-101 administration (20-30 mg daily). To be noted: single agent AT-101 at 20-30 mg daily. It counts as in vivo, human. An excerpt: Better compliance with a 3-day dosing regimen, compared to daily for 21 of 28 days, for example, is expected.
The subject of data set [5] is patients with histologically confirmed metastatic prostate cancer. Kind of data set: CS-202 Phase I data from 9 patients (toxicity). It counts as in vivo, human. As to conditions: 40-60 mg BID days 1-3 every 21 days with docetaxel 75 mg/m2 and prednisone.
Data set [6] relates to A549 NSCLC xenograph model. In words: In vivo efficacy in the A549 NSCLC xenograft model. Also on record: species or system nude mice. As to conditions: intermittent dosing 60 mg/kg po days 1-3 and 15-17, in combination with taxotere 30 mg/kg iv single dose. Here is the method: The in vivo efficacy of (−)-gossypol acetic acid co-crystals alone or in combination with taxotere (TXT) in the A549 NSCLC xenograph model is shown in FIGS. 2 and 3. About 5 million cells of A549 were inoculated into nude mice, 8 mice per dosing group. In one experiment, (−)-gossypol acetic acid co-crystals were administered at 15 mg/kg, oral dosing (po), daily for 21 days, either alone or in combination with taxotere at 8 mg/kg, iv, once a week for three weeks (FIG. 2). In another experiment, (−)-gossypol acetic acid co-crystals were administered at 60 mg/kg, po, daily for three days per week (day 1-3/week) every two weeks (days 1-3, and then days 15-17), either alone or in combination with taxotere at 30 mg/kg, iv, single dose only, once every three weeks (FIG. 3).

The target of another data set is Bcl-2 (Homo sapiens, UniProt P10415). As to conditions: U.S. Patent Application No. 2003/0008924; cited from earlier work.
Sequence of Bcl-2 (P10415 whole entry): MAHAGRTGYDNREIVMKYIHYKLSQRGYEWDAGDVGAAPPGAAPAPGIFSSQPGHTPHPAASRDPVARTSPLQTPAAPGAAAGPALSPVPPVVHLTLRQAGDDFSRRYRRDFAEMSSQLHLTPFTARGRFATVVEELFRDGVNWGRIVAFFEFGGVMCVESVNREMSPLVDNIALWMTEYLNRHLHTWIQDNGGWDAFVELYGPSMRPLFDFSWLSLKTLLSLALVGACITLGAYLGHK
The next data set addresses Mcl-1 (Homo sapiens, UniProt Q07820). To be noted: U.S. Patent Application No. 2003/0008924; cited from earlier work.
Another data set addresses Bcl-XL (Homo sapiens, UniProt Q07817). To be noted: U.S. Patent Application No. 2003/0008924; cited from earlier work.
Data set [7] deals with all-corners with relapsed SCLC. To be noted: oral versus i.v. topotecan HCl; cited from earlier work.
Where [8] appears, read: 20 patients with measurable disease by RECIST.
Setting [9] is: AT-101 added to continued docetaxel and prednisone.
[10] abbreviates: first 11 patients of Cohort B, with docetaxel and prednisone.
[11] abbreviates: Patient 1, NSCLC, 40 mg b.i.d. times 3 days every other week.
[12] abbreviates: Patient 2, 30 mg b.i.d. times 3 days every other week.

Sequence of Mcl-1 (Q07820 whole entry): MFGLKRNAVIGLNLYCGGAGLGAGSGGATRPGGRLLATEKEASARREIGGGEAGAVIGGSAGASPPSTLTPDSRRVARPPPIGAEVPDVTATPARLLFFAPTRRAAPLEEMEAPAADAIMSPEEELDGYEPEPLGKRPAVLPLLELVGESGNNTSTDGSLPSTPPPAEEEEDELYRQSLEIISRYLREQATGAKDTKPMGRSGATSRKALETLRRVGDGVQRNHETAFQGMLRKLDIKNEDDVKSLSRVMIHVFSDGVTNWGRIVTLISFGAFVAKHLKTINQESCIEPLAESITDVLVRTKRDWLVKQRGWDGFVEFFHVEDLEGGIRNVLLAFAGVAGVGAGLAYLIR
Sequence of Bcl-XL (Q07817 whole entry): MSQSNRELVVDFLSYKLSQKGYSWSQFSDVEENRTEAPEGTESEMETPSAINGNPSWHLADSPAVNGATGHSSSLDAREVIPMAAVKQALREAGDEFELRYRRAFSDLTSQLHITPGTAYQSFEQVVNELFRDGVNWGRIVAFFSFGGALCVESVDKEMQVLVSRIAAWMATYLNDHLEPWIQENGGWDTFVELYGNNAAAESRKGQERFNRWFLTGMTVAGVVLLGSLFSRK

`Cc1cc2c(C(C)C)c(O)c(O)c(C=O)c2c(O)c1-c1c(C)cc2c(C(C)C)c(O)c(O)c(C=O)c2c1O` [AT-101, (−)-gossypol acetic acid co-crystal]: in data set [1] (setting [8]), the “Complete response (CR)” value was “one complete response (CR)” and the “PRs (RECIST)” value turned out to be 4. In addition, in data set [1] (20 patients with measurable disease by RECIST criteria at baseline), the “Patients with major tumor shrinkage based on radiographic assessments” value is on record as 6/20. In data set [1] (setting [9]), the “Patients who have achieved a PSA partial response (PR) (50% or greater reduction)” value is given as 7/35 and the “Patients with some PSA reduction” value is 20/35. The PSA response kinetics entry in data set [1] (added to a taxotere/prednisone regimen, patients of Cohort B) is “abrupt reversal of the PSA response (from rising to falling)”. Moreover, the “Reduction in tumor volume” value in data set [1] (another single patient with measurable disease) was determined as 29%. In data set [1] (setting [10]), the “Patients having a 30+% decline in PSA response” value worked out at 4 patients, the “Patients having a 50+% decline in PSA response” value is on record as 2 patients and the “Patients with the desired PSA response” value is 6 patients. Besides, in data set [1] (human, in vivo), the “Peak and AUC concentrations” value was “higher peak and AUC concentrations”. Moreover, in data set [1] (of 35 patients), the “Patients on-study for 4 months or longer” value is recorded as “Eight out of the 35 patients” and the “Patients on-study for 6 months or longer” value was determined as 3 patients. Also, the “D/P refractory patients who have had a PSA PR” value in [1] (patients meeting the strict definition of refractoriness) is on record as 4/32. Further, the Tolerability entry in data set [1] (pulsatile dose administration) was “well tolerated”. Also, in data set [1] (pulsatile dose administration, some patients with CRPC), the D/P chemoresistance result is “overcomes D/P chemoresistance in some patients with CRPC”. Moreover, the “Responses, time-to-event plot” value in data set [1] (taxotere-refractory patients (37 eligible; 21 with measurable disease), AT-101 40 mg BID×3 days q 3 weeks added to taxotere/prednisone) is reported as “multiple durable responses”. Also, in [1] (taxotere-refractory patients, AT-101 40 mg BID×3 days q 3 weeks added to taxotere/prednisone), the RECIST responses result is recorded as “RECIST partial responses are observed”. For the same compound, in data set [2] (setting [11]), the On-treatment toxicities result is listed as “grade 2 peripheral neuropathy” and the “Time disease remained stable on study drug” value is reported as “approximately 939 days”. In data set [2] (setting [12]), the “On treatment grade 1 toxicities” value was “general body aches, nausea, flatulence, headache, fatigue, hypomagnesemia, vomiting, hypokalemia and diarrhea”; the “On treatment grade 2 toxicities” value is recorded as “weight loss, nausea, vomiting”. Moreover, the “Time disease remained stable on study” value in [2] (Patient 2, neuroendocrine carcinoma, 30 mg b.i.d. times 3 days every other week, 18 cycles) is 534 days. For the same compound, the “On treatment grade 3 toxicity” value in [2] (Patient 2, considered serious, determined to be unrelated to AT-101 treatment) was “small bowel obstruction”. Moreover, the “Patients with clinical benefit (prolonged progression free period of more than 1 year)” value in [2] (among 37 patients, b.i.d. times 3 days every other week) is “two patients had clinical benefit”. For the same compound, in data set [3] (Cohort A), the “PSA response versus time” value is “PSA reductions occur early in the treatment and are long lasting”. Also, in data set [3] (first 20 patients of Cohort A), the PSA response entry is recorded as “high rate of PSA response” and the “Patients refractory at the onset of treatment” value is on record as “only one patient out of 20 was refractory”. In addition, the “RECIST SD (stable disease)” value in [4] is listed as “no RECIST SD (stable disease)”. Also, the “PSA PRs” value in data set [4] (compared with pulsatile dosing with D/P) is “fewer PSA PRs”. Further, in [5], the Docetaxel hematological toxicity entry is listed as “no increase in docetaxel hematological toxicity”, the Dose-limiting toxicities entry is listed as “no dose-limiting toxicities” and the Severe gastrointestinal toxicity entry is given as “no severe gastrointestinal toxicity”. For the same compound, the Tumor volume entry in data set [6] is listed as “effectively reduces tumor volume”.

As for `Cc1cc2c(C(C)C)c(O)c(O)c(C=O)c2c(O)c1-c1c(C)cc2c(C(C)C)c(O)c(O)c(C=O)c2c1O` [Gossypol, gossypol], on Bcl-2, the “Binding to Bcl-2 at the BH3 binding groove” value is “shown to bind”. For the same compound, the “Binding to Mcl-1 at the BH3 binding groove” value on Mcl-1 is listed as “shown to bind”. Besides, the “Binding to Bcl-XL at the BH3 binding groove” value at Bcl-XL is “shown to bind”.

In the case of `CC[C@@]1(O)C(=O)OCc2c1cc1n(c2=O)Cc2cc3c(CN(C)C)c(O)ccc3nc2-1` [topotecan HCl, (S)-10-[(dimethylamino)methyl]-4-ethyl-4,9-dihydroxy-1H-pyrano[3′,4′:6,7] indolizino [1,2-b] quinoline-3,14-(4H,12H)-dione monohydrochloride], in data set [7], the “Median progression free survival (PFS)” value is 13.1 weeks and the ORR is 44%.

Values taken from patent US20100189683A1, “Pulsatile Dosing of Gossypol for Treatment of Disease” (Ascenta Therapeutics, Inc., priority 2008, published 2010).
